Test results taken from US20260201476A1, “METHODS FOR IDENTIFYING RESISTANCE OR RESPONSE TO VENETOCLAX/HYPOMETHYLATING AGENT/ANTI-CD70 AGENT TREATMENT FOR ACUTE MYELOID LEUKEMIA” (The Regents of the University of Colorado, A Body Corporate, priority 2022, published 2026).
Like-named read-outs stand apart in the source and are kept apart here.

Legend:
AML [1] = assay: Survival probability of AML subjects by biomarker after venetoclax/azacitidine with or without cusatuzumab (Example 3); assay type: in vivo, human
From the text: The following is a non-limiting example of analysis showing the response of AML subjects to treatment with a combination of venetoclax and azacitidine, or a combination of venetoclax, azacitidine and cusatuzumab, based on various different biomarkers.
FIGS. 12-15 are a series of graphs showing the survival probability of AML subjects after receiving a combination of venetoclax, azacitidine and cusatuzumab. The left panel of each of FIGS. 12-15 are all subjects for which data was available, and the right panel is a subset of the data presented in the left panel minus the subjects who received at least one stem cell transplant.
FIGS. 16-18 are a series of graphs showing the survival probability of AML subjects after receiving either a combination of venetoclax and azacitidine (top panels) or a combination of venetoclax, azacitidine and cusatuzumab (bottom panels).

newly diagnosed AML = details: 1118 newly diagnosed AML patients, cited from earlier work
AML [2] = details: older previously untreated AML patients; venetoclax in combination with backbone chemotherapy treatments; cited from earlier work

cusatuzumab: an anti-CD70 monoclonal antibody currently being tested in clinical trials for the treatment of AML
effect of adding cusatuzumab to venetoclax and azacitidine on survival (AML [1]; CD7+ AML (FIG. 16)): overcome the poor prognostic significant of CD7+ AML
effect of adding cusatuzumab to venetoclax and azacitidine on survival (AML [1]; FIG. 18 (PTPN11), text prints mutated KRAS): overcome the poor prognostic significant of mutated KRAS
effect of adding cusatuzumab to venetoclax and azacitidine on survival (AML [1]; mutated KRAS (FIG. 17)): overcome the poor prognostic significant of mutated KRAS

Nc1ccn([C@@H]2O[C@H](CO)[C@@H](O)[C@@H]2O)c(=O)n1 [cytarabine, 4-amino-1-[(2R,3S,4S,5R)-3,4-dihydroxy-5-(hydroxymethyl)oxolan-2-yl] pyrimidin-2-one]
5-year OS (newly diagnosed AML; ELN 2022 adverse risk group): 15%
5-year OS (newly diagnosed AML; ELN 2022 favorable risk group): 55%
5-year OS (newly diagnosed AML; ELN 2022 intermediate risk group): 34%

CC1(C)CCC(CN2CCN(c3ccc(C(=O)NS(=O)(=O)c4ccc(NCC5CCOCC5)c([N+](=O)[O-])c4)c(Oc4cnc5[nH]ccc5c4)c3)CC2)=C(c2ccc(Cl)cc2)C1 [venetoclax, 4-(4-{[2-(4-Chlorophenyl)-4,4-dimethyl-1-cyclohexen-1-yl]methyl}-1-piperazinyl)-N-({3-nitro-4-[(tetrahydro-2H-pyran-4-ylmethyl)amino]phenyl}sulfonyl)-2-(1H-pyrrolo[2,3-b]pyridin-5-yloxy)benzamide]
responses (AML [2]): 60-70%
